PubChem BioAssay AID2060512 (Molecular Pharmacology Branch, DTP, NCI, 2025)
Values joined by “and” are separate entries in the source; they are usually repeats but may differ in a detail not shown here. Equal entries are not always repeated. Values belong to the compound of their own block, whether it stands above or below them.

Test system: 186277-243-T-J2-PDC complex spheroid viability
Test: Anticancer human tumor 186277-243-T-J2-PDC patient-derived colon adenocarcinoma cell line growth inhibition [GQUAD]
Conditions: for viability, T/C: stronger effect = lower value
Description: DNA G-quadruplex Stabilizer Agents in Combinations in Complex Spheroids
A high-throughput screen of multi-cell type tumor spheroids was designed to identify active combinations of DNA G-quadruplex stabilizer agents and targeted small molecules. Complex spheroids include a stromal component modeled by human endothelial cells (HUVEC) and fibroblasts modeled by human mesenchymal stem cells (MSCs). The concentration ranges selected for each drug and investigational agent were based upon clinically achievable concentrations if the clinical Cmax of the agent was known.
Compounds. The drugs and investigational agents: pidnarulex (CX-5461; NSC782164), APTO-253 (NSC789042), BRACO-19 (NSC847499), peposertib (NSC802822), ceralasertib (NSC780249), elimusertib (NSC800525), camonsertib (NSC841442), AZD-1390 (NSC803789), olaparib (NSC753686), talazoparib (NSC767125), ART-558 (NSC835418), sotorasib (NSC818433), MRTX-1133 (NSC836407), SN-38 (NSC673596), topotecan (NSC609699), etoposide (NSC141540), doxorubicin (NSC123127), gemcitabine (NSC613327), 5-fluorouracil (NSC19893), paclitaxel (NSC125973), vemurafenib (NSC761431), panobinostat (NSC761190), R-306465 (JNJ-16241199; NSC773264), adavosertib (NSC754352), TP-3654 (NSC805149), carboplatin (NSC241240), KSQ-4279 (NSC840948), and staurosporine (NSC755774) were obtained from the National Cancer Institute (NCI) Developmental Therapeutics Program Chemical Repository (34). The FDA-approved anticancer drug set is available from the NCI Developmental Therapeutics Program. […] The stock solutions were prepared in dimethyl sulfoxide (DMSO, Sigma-Aldrich, St. Louis, MO, cat. D2650) at 800-fold the tested concentration and stored at -70 degrees C prior to their use. All drugs and investigational agents were tested over a range starting from a high concentration at or near the clinical Cmax and decreasing in half-log increments. If the clinical Cmax for an agent had not been determined, the highest concentration tested was 10 microM.
2.3 Cell Culture. All cells were maintained in an incubator at 37 degrees C and 5% CO2 with 95% humidity. The PDC lines were cultured according to standard operating procedures established by the NCI PDMR. All PDCs were thawed and cultured in Matrigel-coated flasks prepared with a working solution of 1X Ham's F-12 nutrient mix, without supplementation (Invitrogen, cat. 11765054), 100 U/mL penicillin-streptomycin (Invitrogen, cat. 15140122), and 2.5% Matrigel (Corning Inc., cat. 354248) for the first three passages. The 857933-349-R-J2-PDC line was cultured in 6C/Colon 1B media, which includes advanced DMEM/F-12 (Thermo Fisher Scientific, cat. 12634028), 10 mM HEPES (Thermo Fisher Scientific, cat. 15630080), 1X GlutaMAX supplement (Thermo Fisher Scientific, cat. 35050061), 0.1 mg/mL primocin (InvivoGen, cat. ant-pm-2), 10% defined fetal bovine serum, heat inactivated (HyClone Laboratories Inc., cat. SH30070.03HI), 50% L-WRN conditioned media (ATCC, cat. CRL-3276), 1.25 mM N-Acetyl-L-cysteine (Sigma-Aldrich, cat. A9165), 10 mM nicotinamide (Sigma-Aldrich, cat. N0636), 1X B-27 supplement (Thermo Fisher Scientific, cat. 17504044), 1X N-2 supplement (Thermo Fisher Scientific, cat. 17502048), 10 microM Y-27632 dihydrochloride (Tocris Bioscience, cat. 1254), and 50 ng/mL human EGF recombinant protein (Thermo Fisher Scientific, cat. PHG0311). The 485176-168-R4-J1-PDC line was cultured in Panc media, which includes all 6C/Colon 1B media components plus 100 ng/mL human FGF-10 (Thermo Fisher Scientific, cat. 100-26), 500 nM SB-431542 (Selleckchem, cat. S1067), and gastrin (Tocris, cat. 3006).
[…]
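Further: spheroids exposed to drugs for 7 days.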
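Wherever viability, T/C is given: 100% = DMSO vehicle control viability.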

Structure (SMILES): C=CCn1c(=O)c2cnc(Nc3ccc(N4CCN(C)CC4)cc3)nc2n1-c1cccc(C(C)(C)O)n1 + Cc1[nH]c2ccc(F)cc2c1-c1nc2c3cccnc3c3ncccc3c2[nH]1
- IC50 (curve of first compound, second compound 0.0316 µM): 174 nM
- IC50 (curve of first compound, second compound 0.1 µM): 180 nM
- IC50 (curve of first compound, second compound 0.316 µM): 179 nM
- IC50 (curve of first compound, second compound 1 µM): 179 nM
- IC50 (curve of first compound, second compound 3.16 µM): 142 nM
- IC50 (curve of first compound, second compound 10 µM): 138 nM
- viability, T/C (second compound 0.0316 µM, first compound 0.0316 µM): 97.9%
- viability, T/C (second compound 0.0316 µM, first compound 0.1 µM): 83.8%
- viability, T/C (second compound 0.0316 µM, first compound 0.316 µM): 13.2%
- viability, T/C (second compound 0.0316 µM, first compound 1 µM): 7.62%
- viability, T/C (second compound 0.0316 µM, first compound 3.16 µM): 8.21%
- viability, T/C (second compound 0.0316 µM, first compound 10 µM): 8.87%
- viability, T/C (second compound 0.1 µM, first compound 0.0316 µM): 112%
- viability, T/C (second compound 0.1 µM, first compound 0.1 µM): 87.8%
- viability, T/C (second compound 0.1 µM, first compound 0.316 µM): 13.6%
- viability, T/C (second compound 0.1 µM, first compound 1 µM): 9.07%
- viability, T/C (second compound 0.1 µM, first compound 3.16 µM): 9.3%
- viability, T/C (second compound 0.1 µM, first compound 10 µM): 9.89%
- viability, T/C (second compound 0.316 µM, first compound 0.0316 µM): 108%
- viability, T/C (second compound 0.316 µM, first compound 0.1 µM): 88%
- viability, T/C (second compound 0.316 µM, first compound 0.316 µM): 12.7%
- viability, T/C (second compound 0.316 µM, first compound 1 µM): 8.61%
- viability, T/C (second compound 0.316 µM, first compound 3.16 µM): 9.09%
- viability, T/C (second compound 0.316 µM, first compound 10 µM): 11.5%
- viability, T/C (second compound 1 µM, first compound 0.0316 µM): 97.1%
- viability, T/C (second compound 1 µM, first compound 0.1 µM): 87.4%
- viability, T/C (second compound 1 µM, first compound 0.316 µM): 13.7%
- viability, T/C (second compound 1 µM, first compound 1 µM): 8.91%
- viability, T/C (second compound 1 µM, first compound 3.16 µM): 9.37%
- viability, T/C (second compound 1 µM, first compound 10 µM): 10.9%
- viability, T/C (second compound 3.16 µM, first compound 0.0316 µM): 96.4%
- viability, T/C (second compound 3.16 µM, first compound 0.1 µM): 67.2%
- viability, T/C (second compound 3.16 µM, first compound 0.316 µM): 11.1%
- viability, T/C (second compound 3.16 µM, first compound 1 µM): 8.17%
- viability, T/C (second compound 3.16 µM, first compound 3.16 µM): 8.58%
- viability, T/C (second compound 3.16 µM, first compound 10 µM): 10.8%
- viability, T/C (second compound 10 µM, first compound 0.0316 µM): 89.9%
- viability, T/C (second compound 10 µM, first compound 0.1 µM): 64.6%
- viability, T/C (second compound 10 µM, first compound 0.316 µM): 12.9%
- viability, T/C (second compound 10 µM, first compound 1 µM): 8.07%
- viability, T/C (second compound 10 µM, first compound 3.16 µM): 8.03%
- viability, T/C (second compound 10 µM, first compound 10 µM): 10.3%

Structure (SMILES): C=CCn1c(=O)c2cnc(Nc3ccc(N4CCN(C)CC4)cc3)nc2n1-c1cccc(C(C)(C)O)n1
- viability, T/C (compound 0.0316 µM): 117% and 101% and 93.2%
- viability, T/C (compound 0.1 µM): 73.4% and 86.2% and 76.1%
- viability, T/C (compound 0.316 µM): 13.5% and 16.9% and 22.7%
- viability, T/C (compound 1 µM): 9.12% and 11.3% and 11.6%
- viability, T/C (compound 3.16 µM): 8.45% and 9.04% and 11%
- viability, T/C (compound 10 µM): 10.8% and 11.9% and 14.4%
- IC50 (curve of compound): 157 nM and 182 nM and 175 nM

Structure (SMILES): CCCS(=O)(=O)Nc1ccc(F)c(C(=O)c2c[nH]c3ncc(-c4ccc(Cl)cc4)cc23)c1F
- viability, T/C (compound 0.0316 µM): 111% and 99.7% and 103%
- viability, T/C (compound 0.1 µM): 114% and 101% and 82.2%
- viability, T/C (compound 0.316 µM): 91.7% and 97.9% and 81.8%
- viability, T/C (compound 1 µM): 92.4% and 78.4% and 81.4%
- viability, T/C (compound 3.16 µM): 94.7% and 87.6% and 78.3%
- viability, T/C (compound 10 µM): 22.4% and 25.9% and 24.6%
- IC50 (curve of compound): 6350 nM and 6160 nM and 5690 nM

Continued, in another order:

- IC50 (curve of compound): 172 nM and 183 nM and 180 nM
Structure (SMILES): O=C(NO)c1cnc(N2CCN(S(=O)(=O)c3ccc4ccccc4c3)CC2)nc1
- viability, T/C (compound 0.0316 µM): 108% and 104% and 95.6%
- viability, T/C (compound 0.1 µM): 87.7% and 95.5% and 89.9%
- viability, T/C (compound 0.316 µM): 7.49% and 8.52% and 11.5%
- viability, T/C (compound 1 µM): 0.33% and 0.31% and 0.48%
- viability, T/C (compound 3.16 µM): 0.27% and 0.25% and 0.13%
- viability, T/C (compound 10 µM): 0.27% and 0.25% and 0.15%

- IC50 (curve of compound): 1080 nM and 775 nM and 990 nM
Structure (SMILES): CC1COCCN1c1cc(C2(S(C)(=N)=O)CC2)nc(-c2ccnc3[nH]ccc23)n1 (configuration not stated)
- viability, T/C (compound 0.0316 µM): 98.7% and 91.8% and 97.2%
- viability, T/C (compound 0.1 µM): 84.2% and 100% and 98.6%
- viability, T/C (compound 0.316 µM): 102% and 104% and 95.6%
- viability, T/C (compound 1 µM): 52.7% and 36.2% and 49%
- viability, T/C (compound 3.16 µM): 18.2% and 7.52% and 14.2%
- viability, T/C (compound 10 µM): 6.83% and 5.23% and 6.65%

- IC50 (curve of compound): 43.7 nM and 45.3 nM and 33.4 nM
Structure (SMILES): CC1COCCN1c1cc(C2(O)CC3CCC(C2)O3)c2cnn(-c3ccn[nH]3)c2n1 (configuration not stated)
- viability, T/C (compound 0.0316 µM): 64.6% and 66.1% and 52.2%
- viability, T/C (compound 0.1 µM): 13.1% and 14.8% and 10%
- viability, T/C (compound 0.316 µM): 7.61% and 5.43% and 6.02%
- viability, T/C (compound 1 µM): 4.72% and 5.45% and 4.44%
- viability, T/C (compound 3.16 µM): 4.67% and 5.36% and 4.31%
- viability, T/C (compound 10 µM): 3.02% and 2.97% and 3.42%
